Assay results taken from patent publication US20260224516A1, “PHARMACEUTICAL FOR TREATING OR PREVENTING CHEMOTHERAPY-INDUCED PERIPHERAL NEUROPATHY” (NIPPON CHEMIPHAR CO., LTD., priority 2023, published 2026).

Key:
[1] = test system: oxaliplatin-induced peripheral neuropathy model mice; test: Oxaliplatin-induced mouse neuropathic pain model (Example 7): mechanical allodynia, Uralyt and sodium bicarbonate; type: in vivo, male C57BL/6J mice; conditions: 0.75 g/kg sodium bicarbonate oral twice per day for 13 days; OXP 3 mg/kg i.p. single dose; FIG. 14: day 10
Description: (§1) For the alkalinizing agent, the same test substance as Example 1 and sodium bicarbonate (in this description also referred to as baking soda, manufactured by Tokyo Chemical Industry Co., Ltd., purity: at least 99.0%) were used. Following weighing of the required amount of the sodium bicarbonate, sufficient injection water was added to dissolve the sodium bicarbonate and prepare a solution of the target concentration at the time of use.
(§2) In the Sham group and the control group, the injection water used as the solvent for the alkalinizing agent was used.
(§3) The same type of animals as Example 1 were used. Specifically, six-week old male C57BL/6J mice (from Japan SLC, Inc.) were used. The animals were provided with an approximately one-week acclimatization period, and only healthy individuals were then selected for testing. […]
(§4) Grouping was conducted using the pain-related scores evaluated on the day prior to starting the test (the day prior to test substance administration) as a reference, and specifically, by dividing the individuals into each of the groups to ensure the same averaged pain-related score for each group. […]
Following the OXP administration, the level of pain was evaluated over time. […] A pain evaluation was also conducted on a day prior to the start of alkalinizing agent administration, and this evaluation was recorded as the Pre value. […]

[2] = test system: paclitaxel-induced peripheral neuropathy model mice; test: Paclitaxel-induced mouse neuropathic pain model (Example 8): mechanical allodynia, Uralyt and sodium bicarbonate; type: in vivo, male C57BL/6J mice; conditions: 0.75 g/kg sodium bicarbonate oral twice per day for 17 days; PTX 5 mg/kg i.p. single dose; FIG. 16: day 14
Description: as §1, §2, §3, §4
Following the PTX administration, the level of pain was evaluated over time. […] A pain evaluation was also conducted on a day prior to the start of alkalinizing agent administration, and this evaluation was recorded as the Pre value. […]

In the case of `O=C([O-])O.[Na+]` [sodium bicarbonate], the “onset of mechanical allodynia (pain-related score)” value [1] is reported as “suppressed the onset of mechanical allodynia, but the effect was smaller than that observed for the Uralyt administration group” and the “onset of mechanical allodynia (pain-related score)” value [2] is reported as “suppressed the onset of mechanical allodynia, but the effect was smaller than that observed for the Uralyt administration group”.
